Publication PMC11372837, “Albumin-Mediated Drug Uptake by Organic Anion Transporter 1/3 Is Real: Implications for the Prediction of Active Renal Secretion Clearance” (Molecular Pharmaceutics, 2024)
Read-outs that look alike come from different tables or passages of the source.

Columns and labels:
[1] = molecular target: human serum albumin (Homo sapiens, UniProt P02768); test: Extent of albumin binding: high throughput equilibrium dialysis (fu,inc, Kd); format: in vitro ADME; settings: for Kd: estimated using eq 3 from measured fu,inc; for fraction unbound at 6 h: human
Procedure: Briefly, cellulose membranes with MWCO of 12–14 kDa were submerged in distilled water for 1 h, followed by 20% ethanol/distilled water for at least 20 min. Prior to the start of the experiment, cellulose membranes were rinsed in distilled water and submerged in blank DPBS for 15 min. The HTDialysis device was assembled according to the manufacturer’s instructions (https://www.htdialysis.com). Blank DPBS was first added to the receiver side of the dialysis membranes, followed by DPBS spiked with HSA and the OAT1/3 substrate to the donor side. Each HSA concentration was tested in triplicates. The HTDialysis device was sealed with an adhesive sealing film and incubated in a water bath at 37 °C for 6 h shaken at 150 rpm. Once the assay was completed, aliquots from both receiver and donor wells were transferred to a 96-well plate and stored at −80 °C until analysis. DPBS spiked with the OAT1/3 substrate from both before and after incubation was stored to assess the recovery and stability of the samples. To prepare the sample for analysis, donor and receiver samples were matrix-matched and quenched with ice-cold acetonitrile containing an internal standard (0.5 μM gemfibrozil or 0.05 μM buspirone).

[2] = molecular target: T1, OAT1 (Homo sapiens, UniProt Q4U2R8); test: OAT1 uptake study in ciPTEC-OAT1; settings: for ratio of CLint,u,active (R) (HSA/control) 1%: OAT1, 1% HSA vs control; for ratio of CLint,u,active (R) (HSA/control) 1% / ratio of CLint,u,active (R) (HSA/control) 4%: unbound concentration kept constant; for ratio of CLint,u,active (R) (HSA/control) 4%: OAT1, 4% HSA vs control; for OAT1 substrate status (uptake in ciPTEC-OAT1): control vs probenecid 300 μM; for Vb,max OAT1, Active and Passive Uptake: eq 4 fitted to CLint,u; for Vb,max OAT1, Active and Passive Uptake / Vb,max OAT1, Active Uptake Only: mean ± S.D.; for Vb,max OAT1, Active Uptake Only: eq 4 fitted to CLint,u,active, Kd,m fixed from OAT3 data; for Change to passive diffusion clearance upon inclusion of 1% HSA: probenecid condition, preliminary experiments
T1 sequence (Q4U2R8 1-563): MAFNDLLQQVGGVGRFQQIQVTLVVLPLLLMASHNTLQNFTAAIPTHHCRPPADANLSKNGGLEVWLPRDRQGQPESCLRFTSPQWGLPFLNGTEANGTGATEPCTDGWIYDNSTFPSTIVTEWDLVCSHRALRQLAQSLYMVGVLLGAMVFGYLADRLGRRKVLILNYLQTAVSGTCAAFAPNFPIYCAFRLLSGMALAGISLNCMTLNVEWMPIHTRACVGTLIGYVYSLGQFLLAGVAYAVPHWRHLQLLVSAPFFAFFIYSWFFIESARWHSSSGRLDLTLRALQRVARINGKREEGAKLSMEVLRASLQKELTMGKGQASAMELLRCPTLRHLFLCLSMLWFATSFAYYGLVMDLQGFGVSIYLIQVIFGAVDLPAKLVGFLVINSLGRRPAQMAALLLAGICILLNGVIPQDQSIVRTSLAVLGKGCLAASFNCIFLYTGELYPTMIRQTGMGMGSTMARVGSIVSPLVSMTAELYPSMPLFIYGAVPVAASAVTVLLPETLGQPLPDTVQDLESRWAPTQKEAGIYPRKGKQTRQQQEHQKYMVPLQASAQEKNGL

[3] = Observed in vivo (clinical) renal, secretion and intrinsic secretion clearance; settings: in vivo
[4] = molecular target: T2, OAT3 (Homo sapiens, UniProt Q8TCC7); test: OAT3 uptake study in ciPTEC-OAT3; settings: for OAT3 substrate status (uptake in ciPTEC-OAT3): control vs probenecid 300 μM; for Vb,max OAT3, Active and Passive Uptake: eq 4 fitted to CLint,u; for Vb,max OAT3, Active and Passive Uptake / Vb,max OAT3, Active Uptake Only: mean ± S.D.; for Vb,max OAT3, Active Uptake Only: eq 4 fitted to CLint,u,active
T2 sequence (Q8TCC7 1-542): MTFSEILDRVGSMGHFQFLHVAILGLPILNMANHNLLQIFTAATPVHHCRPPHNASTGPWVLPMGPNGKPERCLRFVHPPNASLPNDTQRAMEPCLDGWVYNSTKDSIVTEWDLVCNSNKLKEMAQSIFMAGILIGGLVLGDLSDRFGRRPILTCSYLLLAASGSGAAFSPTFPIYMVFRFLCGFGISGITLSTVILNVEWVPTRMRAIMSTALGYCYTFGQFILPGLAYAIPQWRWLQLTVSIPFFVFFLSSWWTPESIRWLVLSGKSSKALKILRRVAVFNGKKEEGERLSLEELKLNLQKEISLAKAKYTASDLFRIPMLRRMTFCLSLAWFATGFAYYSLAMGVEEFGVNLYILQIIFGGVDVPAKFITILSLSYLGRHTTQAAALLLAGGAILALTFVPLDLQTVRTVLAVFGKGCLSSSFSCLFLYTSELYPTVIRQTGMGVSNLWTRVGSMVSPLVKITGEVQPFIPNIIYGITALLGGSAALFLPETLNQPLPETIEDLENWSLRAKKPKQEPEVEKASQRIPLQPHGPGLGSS

[5] = in vivo, plasma renal clearance, clinical data; cited from earlier work
[6] = system: OAT1/3; test: Bottom-up IVIVE of CLint,sec, CLsec and CLr, relative activity factor (RAF) approach; design: species or system human
Source text: (§1) The relative expression and relative activity factor (REF and RAF) are unitless scalers that account for in vivo versus in vitro differences in the abundance and activity of OAT1/3 and are used for IVIVE of in vitro CLint,u,active. REF was derived from the OAT1/3 expression ratio between the in vivo human kidney cortex to the in vitro ciPTEC-OAT1/3, as shown in eq 7: [drawing 8] 7 Absolute abundance of OAT1 and OAT3 in the human kidney cortex was previously quantified by our group using the filter-aided sample preparation protocol and global proteomic analysis.[44]

[7] = system: OAT1/3; test: Bottom-up IVIVE of CLint,sec, CLsec and CLr, relative expression factor (REF) approach; design: species or system human
Source text: as §1

[8] = human, in vivo
[9] = 1% human serum albumin in DPBS, 1% HSA, equilibrium dialysis 37 °C 6 h, mean ± SD, read-out: fu,inc (1%)
[10] = 4% HSA in DPBS, 4% HSA, equilibrium dialysis 37 °C 6 h, mean ± SD, read-out: fu,inc (4%)

human serum albumin, sequence (P02768 25-609): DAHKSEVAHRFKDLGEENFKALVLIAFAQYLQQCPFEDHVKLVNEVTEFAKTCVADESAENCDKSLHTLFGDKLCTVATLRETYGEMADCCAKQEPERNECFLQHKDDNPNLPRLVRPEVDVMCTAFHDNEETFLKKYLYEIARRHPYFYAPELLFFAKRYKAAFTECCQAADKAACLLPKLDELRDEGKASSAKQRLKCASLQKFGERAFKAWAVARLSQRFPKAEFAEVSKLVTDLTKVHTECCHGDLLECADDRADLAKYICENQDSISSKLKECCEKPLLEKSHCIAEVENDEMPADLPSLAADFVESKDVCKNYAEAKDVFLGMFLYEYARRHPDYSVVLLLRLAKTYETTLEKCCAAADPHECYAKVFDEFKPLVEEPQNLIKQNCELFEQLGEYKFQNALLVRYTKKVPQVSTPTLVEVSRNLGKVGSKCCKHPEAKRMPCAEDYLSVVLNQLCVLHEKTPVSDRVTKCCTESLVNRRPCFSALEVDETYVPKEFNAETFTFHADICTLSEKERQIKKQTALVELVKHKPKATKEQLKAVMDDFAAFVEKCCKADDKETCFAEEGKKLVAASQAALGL

With Cc1ncc(CO)c(C(=O)O)c1O [4-pyridoxic acid] the Kd ([1]; mean ± SD) was 56.4 ± 2.5 µM, the fraction unbound at 6 h ([1]; 0.5% HSA in DPBS, 0.5% HSA, mean ± S.D., read-out: fu,inc) was 0.4 ± 0.042 and the fraction unbound at 6 h [1, 9] was 0.298 ± 0.005. The fraction unbound at 6 h ([1]; 2% HSA in DPBS, 2% HSA, mean ± S.D., read-out: fu,inc) was 0.163 ± 0.005, the fraction unbound at 6 h [1, 10] was 0.079 ± 0.006 and the “fold increase in OAT1 CLint,u,active versus control” value (shortened to “fold increase”) ([2]; 0.5% HSA, total concentration constant at 10 µM, preliminary) was 1.50 fold. The “fold increase” value ([2]; 0.5% HSA, unbound concentration constant at 1.0 µM) was 1.50 fold, the “fold increase” value ([2]; 1.0% HSA, total concentration constant at 10 µM, preliminary) was 1.82 fold and the “fold increase” value ([2]; 2.0% HSA, total concentration constant at 10 µM, preliminary) was 0.93 fold. The “fold increase” value ([2]; 2.0% HSA, unbound concentration constant at 1.0 µM) was 1.79 fold, the “fold increase” value ([2]; 4.0% HSA, total concentration constant at 10 µM, preliminary) was 2.2 fold and the “ratio of CLint,u,active (R) (HSA/control) 1%” value (from here on “ratio … (HSA/control) 1%”) [2] was 1.92 ± 0.65. The “ratio … (HSA/control) 1%” value ([2]; listed as PDA) was 1.92, the “ratio of CLint,u,active (R) (HSA/control) 4%” value (“ratio … (HSA/control) 4%” for short) [2] was 3.46 ± 0.47 and the “ratio … (HSA/control) 4%” value ([2]; listed as PDA) was 3.46. For the same molecule, the “unbound passive diffusion clearance (CLpd)” value ([2]; ciPTEC-OAT1, 300 µM probenecid) was 0.031 µL/min/mg, the “unbound passive diffusion clearance (CLpd)” value ([2]; ciPTEC-OAT1, 1.0% HSA + 300 µM probenecid) was 0.039 µL/min/mg and the “OAT1 substrate status (uptake in ciPTEC-OAT1)” value [2] was “dual OAT1/3 substrates”. The “Vb,max OAT1, Active and Passive Uptake” value [2] was 222 ± 24.6 pmol/min/mg, the “Vb,max OAT1, Active Uptake Only” value [2] was 213 ± 24 pmol/min/mg and the “Change to passive diffusion clearance upon inclusion of 1% HSA” value [2] was “minimal change”. The “Change to passive diffusion clearance upon inclusion of 1% HSA” value ([2]; listed as PDA) was “minimal changes”, the “CLint,sec Observed” value ([3]; back-calculated from clinical data) was 340 L/h and the “CLsec Observed” value ([3]; plasma secretion clearance) was 14.8 L/h. The “ratio … (HSA/control) 1%” value ([4]; OAT3, 1% HSA vs control) was 2.64 ± 1.12, the “ratio … (HSA/control) 4%” value ([4]; OAT3, 4% HSA vs control) was 3.85 ± 1.30 and the “OAT3 substrate status (uptake in ciPTEC-OAT3)” value [4] was “dual OAT1/3 substrates”. The “Vb,max OAT3, Active and Passive Uptake” value [4] was 53.1 ± 17.1 pmol/min/mg, the “Vb,max OAT3, Active Uptake Only” value [4] was 51.9 ± 15.8 pmol/min/mg and the “CLr Observed” value [5] was 15.6 L/h. For the same molecule, the “CLint,sec Predicted 0% HSA” value [6] was 8.79 L/h, the “CLint,sec Predicted 1% HSA” value [6] was 22.1 L/h and the “CLint,sec Predicted 4% HSA” value [6] was 32.6 L/h. For the same molecule, the “CLsec Predicted 0% HSA” value [6] was 0.74 L/h, the “CLsec Predicted 1% HSA” value [6] was 1.79 L/h and the “CLsec Predicted 4% HSA” value [6] was 2.57 L/h. The “CLint,sec Predicted 0% HSA” value ([7]; REF approach) was 3.46 L/h, the “CLint,sec Predicted 1% HSA” value ([7]; REF approach) was 7.85 L/h and the “CLint,sec Predicted 4% HSA” value ([7]; REF approach) was 12.6 L/h. The “CLsec Predicted 0% HSA” value ([7]; REF approach) was 0.29 L/h, the “CLsec Predicted 1% HSA” value ([7]; REF approach) was 0.66 L/h and the “CLsec Predicted 4% HSA” value ([7]; REF approach) was 1.05 L/h. The “Predicted CLr, CLsec and CLint,sec as % of observed” value ([7]; regardless of albumin inclusion and of RAF/REF approach) was less than 20%.
For CCCCNc1cc(C(=O)O)cc(S(N)(=O)=O)c1Oc1ccccc1 [bumetanide], the “CLint,sec Observed” value [8] was 680 L/h, the “CLsec Observed” value [8] was 5.51 L/h and the Kd ([1]; mean ± SD) was 21.1 ± 1.4 µM. The fraction unbound at 6 h [1, 9] was 0.141 ± 0.012, the fraction unbound at 6 h [1, 10] was 0.029 ± 0.003 and the “OAT1 substrate status (uptake in ciPTEC-OAT1)” value [2] was “dual OAT1/3 substrates”. The “Vb,max OAT1, Active and Passive Uptake” value [2] was 467 ± 49.4 pmol/min/mg, the “Vb,max OAT1, Active Uptake Only” value [2] was 447 ± 48 pmol/min/mg and the “OAT3 substrate status (uptake in ciPTEC-OAT3)” value [4] was “dual OAT1/3 substrates”. For the same molecule, the “Vb,max OAT3, Active and Passive Uptake” value [4] was 492 ± 144 pmol/min/mg, the “Vb,max OAT3, Active Uptake Only” value [4] was 470 ± 132 pmol/min/mg and the “CLr Observed” value [5] was 5.77 L/h.
In the case of NS(=O)(=O)c1cc(C(=O)O)c(NCc2ccco2)cc1Cl [furosemide], the “CLsec Observed” value [8] is reported as 5.07 L/h, the “Vb,max OAT3, Active and Passive Uptake” value [4] is reported as 478 ± 139 pmol/min/mg and the “Vb,max OAT3, Active Uptake Only” value [4] is reported as 453 ± 127 pmol/min/mg.
